Results published in PubChem BioAssay AID1963979 (Molecular Pharmacology Branch, DTP, NCI, 2024).
pIC50: −log10 of the molar value.

Test system: 361931-004-R-J1-PDC multicell spheroid viability
Assay: Anticancer human tumor 361931-004-R-J1-PDC patient-derived colon adenocarcinoma cell line growth inhibition [PI3K]
Conditions: for pIC50: curve of first compound; for viability, T/C: stronger effect = lower value
Summary of the method: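 Three cell types, namely tumor cells, endothelial cells and mesenchymal stem cells, formed each spheroid. Combinations with four PI3K inhibitors were screened at clinically achievable concentrations decreasing by half-log, and spheroid viability was recorded.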

[1] = second compound 0.0316 µM, first compound 0.0316 µM
[2] = second compound 0.0316 µM, first compound 0.1 µM
[3] = second compound 0.0316 µM, first compound 0.316 µM
[4] = second compound 0.0316 µM, first compound 1 µM
[5] = second compound 0.1 µM, first compound 0.0316 µM
[6] = second compound 0.1 µM, first compound 0.1 µM
[7] = second compound 0.1 µM, first compound 0.316 µM
[8] = second compound 0.1 µM, first compound 1 µM
[9] = second compound 0.316 µM, first compound 0.0316 µM
[10] = second compound 0.316 µM, first compound 0.1 µM
[11] = second compound 0.316 µM, first compound 0.316 µM
[12] = second compound 0.316 µM, first compound 1 µM
[13] = second compound 1 µM, first compound 0.0316 µM
[14] = second compound 1 µM, first compound 0.1 µM
[15] = second compound 1 µM, first compound 0.316 µM
[16] = second compound 1 µM, first compound 1 µM
[17] = second compound 3.16 µM, first compound 0.0316 µM
[18] = second compound 3.16 µM, first compound 0.1 µM
[19] = second compound 3.16 µM, first compound 0.316 µM
[20] = second compound 3.16 µM, first compound 1 µM
[21] = second compound 10 µM, first compound 0.0316 µM
[22] = second compound 10 µM, first compound 0.1 µM
[23] = second compound 10 µM, first compound 0.316 µM
[24] = second compound 10 µM, first compound 1 µM
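Further: spheroids exposed to agents for seven days before readout.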

SMILES: CC(C)NCC(C(=O)N1CCN(c2ncnc3c2C(C)CC3O)CC1)c1ccc(Cl)cc1 (centres undefined) + CC(Nc1ncnc2nc[nH]c12)c1cc2cccc(Cl)c2c(=O)n1-c1ccccc1
- pIC50 (second compound 0.0316 µM): 5.45
- pIC50 (second compound 0.1 µM): 5.49
- pIC50 (second compound 0.316 µM): 5.54
- pIC50 (second compound 1 µM): 5.38
- pIC50 (second compound 3.16 µM): 5.52
- pIC50 (second compound 10 µM): 5.50
- viability, T/C [1]: 99.7%
- viability, T/C [2]: 97.3%
- viability, T/C [3]: 99%
- viability, T/C [4]: 78%
- viability, T/C (second compound 0.0316 µM, first compound 3.16 µM): 52.6%
- viability, T/C (second compound 0.0316 µM, first compound 10 µM): 34.3%
- viability, T/C [5]: 104%
- viability, T/C [6]: 99.3%
- viability, T/C [7]: 99.8%
- viability, T/C [8]: 81.3%
- viability, T/C (second compound 0.1 µM, first compound 3.16 µM): 50.8%
- viability, T/C (second compound 0.1 µM, first compound 10 µM): 31.7%
- viability, T/C [9]: 101%
- viability, T/C [10]: 104%
- viability, T/C [11]: 94%
- viability, T/C [12]: 79.1%
- viability, T/C (second compound 0.316 µM, first compound 3.16 µM): 47.4%
- viability, T/C (second compound 0.316 µM, first compound 10 µM): 29.8%
- viability, T/C [13]: 106%
- viability, T/C [14]: 104%
- viability, T/C [15]: 95%
- viability, T/C [16]: 86.1%
- viability, T/C (second compound 1 µM, first compound 3.16 µM): 54.8%
- viability, T/C (second compound 1 µM, first compound 10 µM): 31.9%
- viability, T/C [17]: 105%
- viability, T/C [18]: 107%
- viability, T/C [19]: 98.3%
- viability, T/C [20]: 79.6%
- viability, T/C (second compound 3.16 µM, first compound 3.16 µM): 48.6%
- viability, T/C (second compound 3.16 µM, first compound 10 µM): 26.8%
- viability, T/C [21]: 106%
- viability, T/C [22]: 93.9%
- viability, T/C [23]: 102%
- viability, T/C [24]: 76.7%
- viability, T/C (second compound 10 µM, first compound 3.16 µM): 51.5%
- viability, T/C (second compound 10 µM, first compound 10 µM): 26.7%

SMILES: CCN1CCN(Cc2ccc(Nc3ncc(F)c(-c4cc(F)c5nc(C)n(C(C)C)c5c4)n3)nc2)CC1 + CC(Nc1ncnc2nc[nH]c12)c1cc2cccc(Cl)c2c(=O)n1-c1ccccc1
- pIC50 (second compound 0.0316 µM): < 6.00
- pIC50 (second compound 0.1 µM): < 6.00
- pIC50 (second compound 0.316 µM): < 6.00
- pIC50 (second compound 1 µM): < 6.00
- pIC50 (second compound 3.16 µM): < 6.00
- pIC50 (second compound 10 µM): < 6.00
- viability, T/C (second compound 0.0316 µM, first compound 0.00316 µM): 106%
- viability, T/C (second compound 0.0316 µM, first compound 0.01 µM): 103%
- viability, T/C [1]: 103%
- viability, T/C [2]: 98.8%
- viability, T/C [3]: 109%
- viability, T/C [4]: 105%
- viability, T/C (second compound 0.1 µM, first compound 0.00316 µM): 105%
- viability, T/C (second compound 0.1 µM, first compound 0.01 µM): 105%
- viability, T/C [5]: 103%
- viability, T/C [6]: 97.6%
- viability, T/C [7]: 109%
- viability, T/C [8]: 100%
- viability, T/C (second compound 0.316 µM, first compound 0.00316 µM): 101%
- viability, T/C (second compound 0.316 µM, first compound 0.01 µM): 112%
- viability, T/C [9]: 102%
- viability, T/C [10]: 110%
- viability, T/C [11]: 106%
- viability, T/C [12]: 91.9%
- viability, T/C (second compound 1 µM, first compound 0.00316 µM): 105%
- viability, T/C (second compound 1 µM, first compound 0.01 µM): 101%
- viability, T/C [13]: 102%
- viability, T/C [14]: 104%
- viability, T/C [15]: 108%
- viability, T/C [16]: 93%
- viability, T/C (second compound 3.16 µM, first compound 0.00316 µM): 109%
- viability, T/C (second compound 3.16 µM, first compound 0.01 µM): 107%
- viability, T/C [17]: 101%
- viability, T/C [18]: 104%
- viability, T/C [19]: 100%
- viability, T/C [20]: 81.8%
- viability, T/C (second compound 10 µM, first compound 0.00316 µM): 105%
- viability, T/C (second compound 10 µM, first compound 0.01 µM): 102%
- viability, T/C [21]: 106%
- viability, T/C [22]: 96.5%
- viability, T/C [23]: 89.5%
- viability, T/C [24]: 69%
